Source: patent US20250136570A1 (Tango Therapeutics, Inc., priority 2021, published 2025)

Legend:
Recombinant HDAC1 = Recombinant HDAC1 (Homo sapiens (Human), UniProt Q13547); assay: HDAC1 inhibition, Fluor de Lys fluorescent enzyme assay; type: biochemical; conditions: 3 hours pre-incubation at room temp; 6 nM enzyme; 16 μM Fluor de Lys substrate; duplicate
Procedure, shortened: (§1)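 Enzyme (HDAC1 6 nM, HDAC3/NCor2 1.2 nM final) pre-incubated with compound 3 h at ~22 °C in Tris pH 8 buffer with 0.01% BSA. Reaction run 1 h with 16 μM Fluor de Lys substrate and stopped with TSA-containing developer. Fluorescence read at Ex 360/Em 460; IC50 from an occupancy equation with Hill coefficient, in duplicate.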

HDAC3/NCor2 = HDAC3/NCor2 (Homo sapiens (Human), UniProt O15379); assay: HDAC3 inhibition, Fluor de Lys fluorescent enzyme assay; type: biochemical; conditions: 3 hours pre-incubation at room temp; 1.2 nM enzyme; 16 μM Fluor de Lys substrate; duplicate
Chain of HDAC3/NCor2 (O15379 whole entry): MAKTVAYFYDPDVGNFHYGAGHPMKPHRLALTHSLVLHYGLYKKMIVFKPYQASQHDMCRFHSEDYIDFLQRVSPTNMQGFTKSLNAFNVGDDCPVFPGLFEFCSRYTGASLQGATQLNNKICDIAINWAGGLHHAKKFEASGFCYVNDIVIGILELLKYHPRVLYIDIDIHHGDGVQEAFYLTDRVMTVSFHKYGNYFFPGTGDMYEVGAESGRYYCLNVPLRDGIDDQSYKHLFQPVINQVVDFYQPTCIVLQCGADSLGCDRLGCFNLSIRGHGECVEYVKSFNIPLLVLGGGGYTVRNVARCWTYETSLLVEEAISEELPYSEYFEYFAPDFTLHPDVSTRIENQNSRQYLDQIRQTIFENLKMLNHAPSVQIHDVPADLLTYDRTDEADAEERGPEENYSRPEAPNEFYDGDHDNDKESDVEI
Chain of HDAC3/NCor2 (Q9Y618 395-489 partner): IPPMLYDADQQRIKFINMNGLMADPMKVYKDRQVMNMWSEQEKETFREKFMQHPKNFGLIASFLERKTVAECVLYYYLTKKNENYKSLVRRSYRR
Procedure, shortened: as §1

Chain of Recombinant HDAC1 (Q13547 whole entry): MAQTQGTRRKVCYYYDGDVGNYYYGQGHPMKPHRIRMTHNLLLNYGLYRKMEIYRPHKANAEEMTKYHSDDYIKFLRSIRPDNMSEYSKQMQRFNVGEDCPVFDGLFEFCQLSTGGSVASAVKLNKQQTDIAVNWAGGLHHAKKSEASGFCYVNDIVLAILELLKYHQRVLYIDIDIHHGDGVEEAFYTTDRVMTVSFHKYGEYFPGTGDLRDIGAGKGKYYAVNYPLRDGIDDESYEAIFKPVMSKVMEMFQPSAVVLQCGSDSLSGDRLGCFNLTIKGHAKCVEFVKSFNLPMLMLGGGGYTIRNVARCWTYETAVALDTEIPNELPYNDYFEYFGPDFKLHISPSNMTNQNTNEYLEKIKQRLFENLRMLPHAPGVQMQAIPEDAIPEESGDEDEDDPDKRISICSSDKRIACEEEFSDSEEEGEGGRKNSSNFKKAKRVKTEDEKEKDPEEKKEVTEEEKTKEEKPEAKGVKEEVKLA

In the case of `CS(=N)(=O)c1cnc2sc(C(=O)Nc3cc(-c4ccc(F)cc4)ccc3N)cc2c1` (stereo not drawn) [Compound 202, N-[2-amino-5-(4-fluorophenyl)phenyl]-5-(methylsulfonimidoyl)thieno[2,3-b]pyridine-2-carboxamide], the IC50 (Recombinant HDAC1) is reported as less than 100 nM and the IC50 (HDAC3/NCor2) is reported as greater than 2000 nM.
With `[2H]c1c([2H])c(-c2ccc(N)c(NC(=O)c3ccc(S(C)(=N)=O)cc3)c2)c([2H])c([2H])c1F` (stereo not drawn) [Compound 223, N-[2-amino-5-(2,3,5,6-tetradeutero-4-fluoro-phenyl)phenyl]-4-(methylsulfonimidoyl)benzamide] the IC50 (Recombinant HDAC1) was less than 100 nM and the IC50 (HDAC3/NCor2) was 500 to 2000 nM.
`N=S(=O)(c1ccc(C(=O)Nc2cc(-c3ccc(F)cc3)ccc2N)cc1)C1CC1` (racemic) [Compound 111, rac-N-[2-amino-5-(4-fluorophenyl)phenyl]-4-(cyclopropylsulfonimidoyl)benzamide] gave an IC50 (Recombinant HDAC1) of less than 100 nM and an IC50 (HDAC3/NCor2) of 500 to 2000 nM.
`CS(=N)(=O)c1ccc2sc(C(=O)Nc3cc(-c4ccc(F)cc4)ccc3N)cc2c1` (stereo not drawn) [Compound 173, N-[2-amino-5-(4-fluorophenyl)phenyl]-5-(methylsulfonimidoyl)benzothiophene-2-carboxamide] was tested, and the IC50 (Recombinant HDAC1) was less than 100 nM and the IC50 (HDAC3/NCor2) was 500 to 2000 nM.
Molecule `N=S(=O)(c1ccc(C(=O)Nc2cc(-c3ccc(F)cc3)ccc2N)cc1)c1cccnn1` (stereo not drawn) [Compound 174, N-[2-amino-5-(4-fluorophenyl)phenyl]-4-(pyridazin-3-ylsulfonimidoyl)benzamide] has an IC50 (Recombinant HDAC1) of less than 100 nM and an IC50 (HDAC3/NCor2) of 500 to 2000 nM.
Molecule `C[S@@](=N)(=O)c1ccc(C(=O)Nc2cc(-c3ccc(F)cc3)ccc2N)cc1` [Compound 132, (R)—N-[2-amino-5-(4-fluorophenyl)phenyl]-4-(methylsulfonimidoyl)benzamide] has an IC50 (Recombinant HDAC1) of less than 100 nM and an IC50 (HDAC3/NCor2) of 500 to 2000 nM.
